Measured values as given in ChEMBL document CHEMBL1795207, “Syntheses of cellotriose and cellotetraose analogues as transition state mimics for mechanistic studies of cellulases” (Bioorg Med Chem, 2011).

What follows are compounds tested against T1, Endoglucanase-5 (Mycothermus thermophilus, UniProt P43316) (assay: Binding affinity to Humicola insolens NCE5 assessed as dissociation constant at pH 3.0 and at 59 degC by differential scanning calorimetry).
T1 sequence (P43316 whole entry): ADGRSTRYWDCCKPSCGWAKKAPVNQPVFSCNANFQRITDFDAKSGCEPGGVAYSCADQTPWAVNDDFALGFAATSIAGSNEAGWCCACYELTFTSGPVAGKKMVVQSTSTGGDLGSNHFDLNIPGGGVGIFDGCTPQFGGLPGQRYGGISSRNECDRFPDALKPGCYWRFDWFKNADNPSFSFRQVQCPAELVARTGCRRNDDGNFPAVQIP
CO[C@H]1O[C@H](CO)[C@@H](S[C@@H]2O[C@H](CO)[C@@H](O[C@@H]3O[C@H](CO)[C@@H](O)[C@H](O)[C@H]3O)[C@H](O)[C@H]2O)[C@H](O)[C@H]1O showed a Ki of over 30 mM. With CO[C@@H]1O[C@H](CO)[C@@H](S[C@@H]2O[C@H](CO)[C@@H](O[C@@H]3O[C@H](CO)[C@@H](O)[C@H](O)[C@H]3O)[C@H](O)[C@H]2O)[C@H](O)[C@H]1O the Ki was over 30 mM. CO[C@@H]1O[C@H](CO)[C@@H](O[C@@H]2O[C@H](CO)[C@@H](S[C@@H]3O[C@H](CO)[C@@H](O[C@@H]4O[C@H](CO)[C@@H](O)[C@H](O)[C@H]4O)[C@H](O)[C@H]3O)[C@H](O)[C@H]2O)[C@H](O)[C@H]1O was tested, and the Ki was 3.9 mM. Compound CO[C@H]1O[C@H](CO)[C@@H](S[C@@H]2C=C(CO)[C@@H](O[C@@H]3O[C@H](CO)[C@@H](O)[C@H](O)[C@H]3O)[C@H](O)[C@H]2O)[C@H](O)[C@H]1O has a Ki of 25 mM. CO[C@@H]1O[C@H](CO)[C@@H](S[C@@H]2C=C(CO)[C@@H](O[C@@H]3O[C@H](CO)[C@@H](O)[C@H](O)[C@H]3O)[C@H](O)[C@H]2O)[C@H](O)[C@H]1O gave a Ki of 29 mM. CO[C@@H]1O[C@H](CO)[C@@H](O[C@@H]2O[C@H](CO)[C@@H](S[C@@H]3C=C(CO)[C@@H](O[C@@H]4O[C@H](CO)[C@@H](O)[C@H](O)[C@H]4O)[C@H](O)[C@H]3O)[C@H](O)[C@H]2O)[C@H](O)[C@H]1O gave a Ki of 1.6 mM.

The compounds below were run against T1, Endoglucanase-5 (assay: Binding affinity to Humicola insolens NCE5 assessed as dissociation constant at pH 4).
For O=C[C@H](O)[C@@H](O)[C@H](O[C@@H]1O[C@H](CO)[C@@H](O[C@@H]2O[C@H](CO)[C@@H](O[C@@H]3O[C@H](CO)[C@@H](O[C@@H]4O[C@H](CO)[C@@H](O[C@@H]5O[C@H](CO)[C@@H](O)[C@H](O)[C@H]5O)[C@H](O)[C@H]4O)[C@H](O)[C@H]3O)[C@H](O)[C@H]2O)[C@H](O)[C@H]1O)[C@H](O)CO [CELLOHEXOSE], the Ki was 0.42 mM.
